Experimental data published in US4861768A, “2 β-substituted thiomethylpenicillin derivatives and their preparation and use” (Taiho Pharmaceutical Company, Limited, priority 1986, dated 1989).

Experiments:
[1] = target: penicillinase (β-lactamase) from Bacillus SP; assay: Test for β-lactamase inhibitory activity (microiodometry, penicillin G as substrate); assay type: biochemical; conditions: read-out: 50% Inhibitory Concentration
Experimental: The inhibitory activity of each compound against penicillinase (β-lactamase) from Bacillus SP was determined by microiodometry [Tanpakushitsu Kakusan Koso (Proteins, Nucleic Acids and Enzymes), vol. 23, No.5, pp 391-400 (1978)] using penicillin G as a substrate.

[2] = tested on: Klebsiella pneumoniae 101 L (TEM1); assay: MIC of piperacillin alone or with compound, Klebsiella pneumoniae 101 L (TEM1); assay type: cell-based; conditions: 20 h, read-out: MIC, Piperacillin alone
Experimental: (§1) (1) The minimal inhibitory concentrations (MIC) of piperacillin in the presence of 10 μg/ml of compounds of the present invention against various bacteria were determined by the MIC assay method of Japan Society of Chemotherapy (Chemotherapy 29, No. 1, pp. 76-79, 1981). The MIC values of various compounds according to the present invention and of piperacillin, as used singly, were also determined. Each test strain was grown in Mueller Hinton Broth (Difco) and used for inoculation after dilution to a concentration of 10^6 CFU/ml. The assay media (Mueller Hinton Broth) containing piperacillin and the compound according to the present invention in a series of concentrations were inoculated with the test strain and incubated at 37° C. for 20 hours. The minimum concentration at which no more than 5 colonies were observed was determined. […] All the test strains used in the above assays were β-lactamase producers.

[3] = tested on: Morganella morganii 119; assay: MIC of piperacillin alone or with compound, Morganella morganii 119; assay type: cell-based; conditions: alone, Mueller Hinton Broth, 10^6 CFU/ml, 37° C., 20 hours
Experimental: as §1

[4] = tested on: Acinetobacter 450 L; assay: MIC of piperacillin alone or with compound, Acinetobacter 450 L; assay type: cell-based; conditions: alone, Mueller Hinton Broth, 10^6 CFU/ml, 37° C., 20 hours
Experimental: as §1

[5] = tested on: Pseudomonas aeruginosa PSE 3; assay: MIC of piperacillin alone or with compound, Pseudomonas aeruginosa PSE 3; assay type: cell-based; conditions: PSE3, alone, Mueller Hinton Broth, 10^6 CFU/ml, 37° C., 20 hours
Experimental: as §1

[6] = tested on: Staphylococcus aureus 54 K; assay: MIC of piperacillin alone or with compound, Staphylococcus aureus 54 K; assay type: cell-based; conditions: alone, Mueller Hinton Broth, 10^6 CFU/ml, 37° C., 20 hours
Experimental: as §1

[7] = tested on: Serratia marcescens 200 L (TEM + C); assay: MIC of piperacillin alone or with compound, Serratia marcescens 200 L (TEM + C); assay type: cell-based; conditions: alone, Mueller Hinton Broth, 10^6 CFU/ml, 37° C., 20 hours
Experimental: as §1

[8] = tested on: Echerichia coli SHV 1; assay: MIC of piperacillin alone or with compound, Echerichia coli SHV 1; assay type: cell-based; conditions: 20 h, read-out: MIC, Piperacillin alone
Experimental: as §1

For `CC1(CSc2nnnn2CCO)C(C(=O)O)N2C(=O)CC2S1(=O)=O` (stereo not drawn) [Compound 31, sodium 2β-[1-(2'-hydroxyethyl)-5-tetrazolylthio]methyl-2α-methylpenam-3α-carboxylate 1,1-dioxide], which IC50 [1] is on record?
Its IC50 is 1820 nM.

`CC1(CSc2nnnn2-c2ccccc2)C(C(=O)O)N2C(=O)CC2S1(=O)=O` (stereo not drawn) [Compound 28, sodium 2α-methyl-2β-(1-phenyl-5-tetrazolyl)thiomethylpenam-3α-carboxylate 1,1-dioxide] was tested. Which IC50 [1] did it give?
The IC50 was 1000 nM.

For `CC1(CSC#N)C(C(=O)O)N2C(=O)CC2S1(=O)=O` (stereo not drawn) [Compound 26, sodium 2α-methyl-2β-thiocyanatomethylpenam-3α-carboxylate 1,1-dioxide], which IC50 [1] is on record?
Its IC50 is 9800 nM.

What does the source list for `CCN1CCN(C(=O)N[C@@H](C(=O)N[C@@H]2C(=O)N3[C@@H]2SC(C)(C)[C@@H]3C(=O)O)c2ccccc2)C(=O)C1=O` [Piperacillin, piperacillin]?
MIC [2]: 200 µg/mL; MIC [3]: 25 µg/mL; MIC [4]: 200 µg/mL; MIC [5]: 50 µg/mL; MIC [6]: 6.25 µg/mL; MIC [7]: 25 µg/mL; MIC [8]: 12.5 µg/mL

For `COc1ccc(-n2nnnc2SCC2(C)C(C(=O)O)N3C(=O)CC3S2(=O)=O)cc1` (stereo not drawn) [Compound 30, sodium 2β-(1-p-methoxyphenyl-5-tetrazolylthio)methyl-2α-methylpenam-3α-carboxylate 1,1-dioxide], which IC50 [1] is on record?
The IC50 was 750 nM.

With `CC1(CSc2nnnn2-c2ccc(Cl)cc2)C(C(=O)O)N2C(=O)CC2S1(=O)=O` (stereo not drawn) [Compound 29, sodium 2β-(1-p-chlorophenyl-5-tetrazolylthio)methyl-2α-methylpenam-3α-carboxylate 1,1-dioxide] as the compound, how does the IC50 [1] read?
Its IC50 is 480 nM.

With `Cn1nnnc1SCC1(C)C(C(=O)O)N2C(=O)CC2S1(=O)=O` (stereo not drawn) [Compound 27, sodium 2α-methyl-2β-(1-methyl-5-tetrazolyl)thiomethylpenam-3α-carboxylate 1,1-dioxide] as the compound, how does the IC50 [1] read?
The IC50 was 870 nM.
